“And” between values parts separate entries of the source, which are not always exact repeats. Equal values may be shown once. Read-outs that look alike come from different tables or passages of the source.
Experiments:
[1] = system: CRL 1790 cells; experiment: Cytotoxicity assay, non-malignant CRL 1790 colon cells; type: cell-based; conditions: Homo sapiens, 48 h
Text: (§1) Evaluation of the cytotoxic properties of the compounds presented in Table 1, Table 2, Table 3 and Table 4 was undertaken using the procedure outlined in [7]. In brief, the HCT 116 cells were obtained from the ATCC and cultured in McCoy’s 5A medium. The CRL 1790 cells were obtained from the ATCC and cultured in Minimum Essential Medium. The MCF-7 and MDA-MBA-231 cells were obtained from the Saskatchewan Cancer Agency and cultured in DMEM. In each assay the culture medium was supplemented with 10% fetal bovine serum and 1% penicillin–streptomycin antibiotics. The time of the bioassays was 48 h, unless indicated otherwise. All determinations were carried out in triplicate on three different occasions.

[2] = system: HCT 116 cells; experiment: Cytotoxicity assay, HCT 116 colon cancer cells; type: cell-based, human; conditions: for IC50 / inhibition at 10 µM / inhibition at 100 µM: Homo sapiens, HCT-116, 48 h; for SI (selectivity index): IC50 CRL 1790 / IC50 HCT 116; for inhibition at 10 µM / inhibition at 100 µM: read-out: percentage inhibition of HCT 116 cells
Text: as §1

[3] = system: HCT 116 cells; experiment: Mitochondrial membrane potential of HCT 116 cells (TMRE dye); type: cell-based, human; conditions: IC50 concentration towards HCT 116, 48 h, Figure 4
Text: The method of Crowley et al. was employed in order to ascertain the effects of 1m, 7a, e, g, and 5-FU on the mitochondrial membrane potential of HCT 116 cells.
The decision was made to experiment with another method for determining the effect of compounds on the MMP. In this assay, the dye used was tetramethylrhodamine ethyl ester (TMRE), which can be found in the mitochondria of healthy cells. However, in apoptotic cells, the dye is released into the cytosol, leading to a decrease in the fluorescence signal.

[4] = system: HCT 116 cells; experiment: ROS levels in HCT 116 cells (DCF-DA dye); type: cell-based, human; conditions: IC50 concentration towards HCT 116; DCF-DA fluorescence; Figure 5
Protocol: In this assay, the dye 2,7-dichlorofluorescein diacetate (DCF-DA) was used, and the effects of 1m, 7a, e, g, and 5-FU on the ROS levels in HCT 116 cells were determined by the method of [11].
The evaluation of 1m, […], e, and g for their capacity to increase the concentration of ROS in HCT 116 cells used 2′,7′-dichlorofluorescein diacetate. This dye is deacetylated in cells, and is converted into a non-fluorescent compound that reacts with ROS to form 2′,7′-dichlorofluorescein, which is fluorescent.

[5] = system: MDA-MB-231 cells; experiment: Cytotoxicity assay, MDA-MB-231 breast cancer cells; type: cell-based, human; conditions: Homo sapiens, MDA-MB-231, 48 h, read-out: percentage inhibition of MDA-MB-231 cells
Text: as §1

[6] = system: MCF-7 cells; experiment: Cytotoxicity assay, MCF-7 breast cancer cells; type: cell-based, human; conditions: Homo sapiens, MCF7, 48 h, read-out: percentage inhibition of MCF-7 cells
Text: as §1

[7] = system: HCT 116 cells; experiment: Chemosensitization of HCT 116 cells: 1m for 24 h, then 2a or 5-FU for a further 24 h; type: cell-based, human; conditions: for Reduction in Live Cells % 1m (48 h): DMSO figure minus compound figure
Text: as §1
The next phase of the investigation was to determine whether a representative compound in series 1 chemosensitizes HCT 116 cells to a 3,5-bis(benzylidene)-4-piperidone 2a. […] The colon cancer cells were incubated for 24 h with 1m, and then 2a was added and the incubation was continued for a further 24 h. Different concentrations of both 1m and 2a were employed, and the results are presented as entries 1–12 in Table 3. In addition, the effects of each of 1m, 2a, and 5-FU on HCT 116 cells (which are necessary for the evaluation of whether chemosensitivity occurs) were recorded, and are presented as entries 13–20 in Table 3.
The concentration of 1m in combination 4 is 5 µM, which after 48 h causes a percentage reduction of live cells to 86% (DMSO figure after 48 h, line 20) minus 75% (48 h, line 13), or 11%.
The concentration of 2a in combination 4 is 0.2 µM. This combination leads to a reduction of the percentage of live cells to 91% (DMSO figure after 24 h, line 20) minus 69%, or 22%.
The percentage reduction in live cells caused by a combination of 1m (5 µM) and 2a (0.2 µM), in the absence of chemosensitization, is 11% plus 22%, or 33%.
However, the percentage reduction in cells as indicated on line 4 is 86% (DMSO figure after 48 h) minus 12% (line 4, 48 h figure), or 74%.

[8] = Cytotoxicity (CC50), average over non-malignant cells; type: cell-based; conditions: human, Hs27 and MCF10A cells (non-malignant), average of both
Protocol: (§2) In brief, the compounds were incubated for 24 h with the neoplasms, using DMEM and RPMI media. Three independent experiments were carried out.

[9] = system: Ramos cells; experiment: Cytotoxicity (CC50), Ramos cells; type: cell-based, human
Protocol: as §2

[10] = system: CEM cells; experiment: Cytotoxicity (CC50), CEM cells; type: cell-based, human
Protocol: as §2

[11] = Cytotoxicity (CC50), non-malignant MCF-10A breast cells; type: cell-based; conditions: human, MCF-10A cells (non-malignant breast cells); 24 h incubation; read-out: Non-Malignant Cells CC50, MCF10A
Protocol: as §2

[12] = system: HL-60 cells; experiment: Cytotoxicity (CC50), HL-60 cells; type: cell-based, human
Protocol: as §2

[13] = system: RAJI cells; experiment: Cytotoxicity (CC50), Raji cells; type: cell-based, human
Protocol: as §2

[14] = system: Ramos, NALM-60, CEM, HL-60, JURKAT, RAJI cells; experiment: Cytotoxicity (CC50), average over six leukemia/lymphoma cell lines; type: cell-based, human
Protocol: as §2

[15] = Cytotoxicity (CC50), non-malignant Hs27 foreskin cells; type: cell-based; conditions: human, 24 h incubation
Protocol: as §2

[16] = system: NALM-60 cells; experiment: Cytotoxicity (CC50), NALM-60 cells; type: cell-based, human
Protocol: as §2

[17] = system: JURKAT cells; experiment: Cytotoxicity (CC50), Jurkat cells; type: cell-based, human
Protocol: as §2

[18] = ratio of IC50 values towards HCT 116 cells

In the case of COc1ccc(C(=O)NNC(=O)CCN2CC(=Cc3ccc([N+](=O)[O-])cc3)C(=O)C(=Cc3ccc([N+](=O)[O-])cc3)C2)cc1OC [7e, 3,5-Bis(4-nitrobenzylidene)-1-[3-(3,4-dimethoxyphenylcarbonylaminoamino)-3-oxo-1-propyl]-4-piperidone], the IC50 ([1]; Table 4, read-out: IC50 CRL 1790) is reported as 4.57 ± 0.53 µM, the IC50 ([2]; Table 4, read-out: IC50 HCT 116) is reported as 0.28 ± 0.01 µM and the “SI (selectivity index)” value ([2]; Table 4) is reported as 16.3. For the same compound, the “times more potent than 5-FU” value [2, 18] was 14.7 times, the “times the antineoplastic activity of melphalan” value [2, 18] was 119 times and the “effect on mitochondrial membrane potential of HCT 116 cells” value [3] was “reduces the electrochemical potential of the mitochondria”. The melting point was 153 to 158 °C and the “effect on ROS levels in HCT 116 cells” value [4] was “increase the fluorescence intensity”.
With C=CC(=O)NNC(=O)c1ccc(OC)c(OC)c1 [1m, N^2-Acryloyl-3,4-dimethoxylbenzohydrazide] the IC50 ([1]; Table 2, read-out: Non-Malignant CRL 1790 Cells IC50) was over 100 µM, the inhibition at 10 µM [2] was 46.9 ± 2.55% and the inhibition at 100 µM [2] was 97.9 ± 1.92%. For the same compound, the IC50 ([2]; Table 2, read-out: Neoplastic Cells IC50, HCT 116) was 15.3 ± 0.42 µM, the “SI (selectivity index)” value ([2]; Table 2) was over 6.54 and the inhibition at 10 µM [5] was -15.9 ± 1.96%. The inhibition at 100 µM [5] was 50.5 ± 1.42%, the inhibition at 10 µM [6] was -16.1 ± 3.51% and the inhibition at 100 µM [6] was over 100%. For the same compound, the “effect on mitochondrial membrane potential of HCT 116 cells” value [3] was “only 7e reduces the electrochemical potential of the mitochondria”, the melting point was 163 to 165 °C and the “Reduction in Live Cells % 1m (48 h)” value ([7]; 1m 5 µM alone, 48 h) was 11%. The “Reduction in Live Cells % 1m (48 h)” value ([7]; 1m 10 µM alone, 48 h) was 29%, the “Reduction in Live Cells % 1m (48 h)” value ([7]; 1m 15 µM alone, 48 h) was 54% and the “chemosensitization of HCT 116 cells” value ([7]; 1m 24 h before the cytotoxin, certain concentrations) was “sensitizes HCT 116 cells to the potent cytotoxin 2a, and also to the established anticancer drug 5-FU”. For the same compound, the “Live Cells %” value ([7]; entry 13: 1m 5 µM alone, 24 h) was 88 ± 2.82%, the “Live Cells %” value ([7]; entry 13: 1m 5 µM alone, 48 h) was 75% and 75 ± 4.89% and the “Live Cells %” value ([7]; entry 14: 1m 10 µM alone, 24 h) was 67 ± 1.67%. The “Live Cells %” value ([7]; entry 14: 1m 10 µM alone, 48 h) was 57 ± 1.76%, the “Live Cells %” value ([7]; entry 15: 1m 15 µM alone, 24 h) was 61 ± 3.49% and the “Live Cells %” value ([7]; entry 15: 1m 15 µM alone, 48 h) was 32 ± 0.94%. For the same compound, the “effect on ROS levels in HCT 116 cells” value [4] was “increase the fluorescence intensity”.
C=CC(=O)NNC(=O)c1cc(Cl)ccc1Cl [1h, N^2-Acryloyl-2,5-dichlorobenzohydrazide] showed a CC50 at 24 h [8] of 13.7 µM, an inhibition at 10 µM [2] of 7.12 ± 1.51% and an inhibition at 100 µM [2] of 87.7 ± 1.62%. For the same compound, the CC50 ([9]; Homo sapiens, Ramos, 24 h incubation) was 0.29 ± 0.05 µM, the “SI Ramos” value ([9]; average CC50 of non-malignant cells / CC50 Ramos) was 47.2 and the CC50 ([10]; Homo sapiens, CCRF-CEM, 24 h incubation) was 3.37 ± 0.18 µM. For the same compound, the “SI CEM” value ([10]; average CC50 of non-malignant cells / CC50 CEM) was 4.07, the CC50 at 24 h [11] was 12.9 ± 0.95 µM and the inhibition at 10 µM [5] was -5.95 ± 4.21%. For the same compound, the inhibition at 100 µM [5] was 122 ± 2.9%, the CC50 ([12]; Homo sapiens, HL-60, 24 h incubation) was 5.62 ± 0.29 µM and the “SI HL-60” value ([12]; average CC50 of non-malignant cells / CC50 HL-60) was 2.44. For the same compound, the inhibition at 10 µM [6] was 14.7 ± 3.68%, the inhibition at 100 µM [6] was 54.2 ± 3.42% and the CC50 ([13]; Homo sapiens, Raji, 24 h incubation) was 5.5 ± 1.1 µM. The “SI RAJI” value ([13]; average CC50 of non-malignant cells / CC50 RAJI) was 2.49, the “Avg SI, neoplastic cells” value [14] was 11.0 and the CC50 ([14]; Homo sapiens, average over six neoplastic cell lines) was 3.44 µM. For the same compound, the melting point was 207 to 210 °C, the CC50 at 24 h [15] was 14.4 ± 0.24 µM and the CC50 ([16]; Homo sapiens, 24 h incubation) was 3.34 ± 0.43 µM. The “SI NALM-60” value ([16]; average CC50 of non-malignant cells / CC50 NALM-60) was 4.10, the CC50 ([17]; Homo sapiens, Jurkat, 24 h incubation) was 2.5 ± 0.24 µM and the “SI JURKAT” value ([17]; average CC50 of non-malignant cells / CC50 JURKAT) was 5.48.

Reference: article PMC8226474, “Design, Syntheses, and Bioevaluations of Some Novel N^2-Acryloylbenzohydrazides as Chemostimulants and Cytotoxic Agents” (Medicines, 2021)
